Laboratory results from patent publication US9096560B2, “5-heterocyclylalkyl-3-hydroxy-2-phenylcyclopent-2-enones as herbicides” (Syngenta Limited, priority 2008, dated 2015).

Experiments:
Assay type in all cases: in vivo
Lolium perenne (LOLPE) [1] = assay: Example B pre-emergence herbicidal test, LOLPE; conditions: Lolium perenne, 312 h, rate 250 g/ha, evaluated after 13 days, 100=total damage to plant, 0=no damage to plant
Method in brief: (§1)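 Pre-emergence spray one day after sowing; vehicle acetone/water (50:50), 0.5% Tween 20. Percent damage (0 = no effect, 100 = plant killed) recorded 13 days later.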

[2] = system: Alopecurus myosuroides (ALOMY); assay: Example B pre-emergence herbicidal test, ALOMY; conditions: Alopecurus myosuroides, 312 h, rate 250 g/ha, evaluated after 13 days, 100=total damage to plant, 0=no damage to plant
Method in brief: as §1

[3] = system: Echinochloa crus-galli (ECHCG); assay: Example B pre-emergence herbicidal test, ECHCG; conditions: Echinochloa crus-galli, 312 h, rate 250 g/ha, evaluated after 13 days, 100=total damage to plant, 0=no damage to plant
Method in brief: as §1

Avena fatua (AVEFA) [4] = assay: Example B pre-emergence herbicidal test, AVEFA; conditions: Avena fatua, 312 h, rate 250 g/ha, evaluated after 13 days, 100=total damage to plant, 0=no damage to plant
Method in brief: as §1

Lolium perenne (LOLPE) [5] = assay: Example B post-emergence herbicidal test, LOLPE; conditions: Lolium perenne, 312 h, rate 250 g/ha, evaluated after 13 days, scale 0-100, read-out: Post-emergence activity LOLPE (100=total damage to plant; 0=no damage to plant)
Method in brief: (§2)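 Foliar application to 8-day-old pot-grown seedlings in a glasshouse (24/16 °C, 14 h photoperiod, 65% humidity). Spray solution was derived from an acetone/water (50:50) formulation with 0.5% Tween 20. Injury was assessed 13 days later on a 0–100 scale.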

[6] = system: Alopecurus myosuroides (ALOMY); assay: Example B post-emergence herbicidal test, ALOMY; conditions: Alopecurus myosuroides, 312 h, rate 250 g/ha, evaluated after 13 days, scale 0-100, read-out: Post-emergence activity ALOMY (100=total damage to plant; 0=no damage to plant)
Method in brief: as §2

[7] = system: Echinochloa crus-galli (ECHCG); assay: Example B post-emergence herbicidal test, ECHCG; conditions: Echinochloa crus-galli, 312 h, rate 250 g/ha, evaluated after 13 days, scale 0-100, read-out: Post-emergence activity ECHCG (100=total damage to plant; 0=no damage to plant)
Method in brief: as §2

Avena fatua (AVEFA) [8] = assay: Example B post-emergence herbicidal test, AVEFA; conditions: Avena fatua, 312 h, rate 250 g/ha, evaluated after 13 days, scale 0-100, read-out: Post-emergence activity AVEFA (100=total damage to plant; 0=no damage to plant)
Method in brief: as §2

[9] = system: Winter Wheat variety 'Hereward'; assay: Example C crop damage test on Winter Wheat, post-emergence, no safener; conditions: Triticum aestivum, 312 h, rate 250 g/ha, evaluated after 13 days, read-out: Winter Wheat (Hereward) damage (100=total damage to plant; 0=no damage to plant)
Method: Seeds of the Winter Wheat variety ‘Hereward’ were sown in standard soil in pots. After 8 days cultivation under controlled conditions in a glasshouse (at 24/16° C., day/night; 14 hours light; 65% humidity), the plants were sprayed with an aqueous spray solution derived from the formulation of the technical active ingredient in acetone/water (50:50) solution containing 0.5% Tween 20 (polyoxyethelyene sorbitan monolaurate, CAS RN 9005-64-5). The test plants were then grown in a glasshouse under controlled conditions in a glasshouse (at 24/16° C., day/night; 14 hours light; 65% humidity) and watered twice daily. After 13 days for pre and post-emergence, the test was evaluated (100=total damage to plant; 0=no damage to plant).

[10] = system: Winter Wheat variety 'Hereward' seed treated with cloquintocet mexyl; assay: Example C crop damage test on Winter Wheat seed treated with safener cloquintocet mexyl, post-emergence; conditions: rate 250 g/ha, seed treated with cloquintocet mexyl 0.5 grams per kilogram of dry seed, evaluated after 13 days
Method: Seeds of the Winter Wheat variety ‘Hereward’ were seed treated with a wettable powder formulation of the cereal herbicide safener, cloquintocet mexyl, at a rate of 0.5 grams per kilogram of dry seed prior to the initiation of glasshouse testing. One seed was sown per 1.5 inch plastic pot into a sandy loam soil at a depth of 1 cm, 8 days prior to application of the test compounds and was watered and grown under controlled conditions in a glasshouse (at 24/16° C., day/night; 14 hours light; 65% humidity). The plants were sprayed Post-emergence with an aqueous spray solution derived from the formulation of the technical active ingredient in acetone/water (50:50) solution containing 0.5% Tween 20 (polyoxyethelyene sorbitan monolaurate, CAS RN 9005-64-5). The test plants were then grown in a glasshouse under controlled conditions in a glasshouse (at 24/16° C., day/night; 14 hours light; 65% humidity) and watered twice daily. After 13 days for pre and post-emergence, the test was evaluated (100=total damage to plant; 0=no damage to plant).

| SMILES | pest or weed control at 250 g/ha (Lolium perenne (LOLPE) [1]) | pest or weed control at 250 g/ha [2] | pest or weed control at 250 g/ha [3] | pest or weed control at 250 g/ha (Avena fatua (AVEFA) [4]) | pest or weed control at 250 g/ha (Lolium perenne (LOLPE) [5]) | pest or weed control at 250 g/ha [6] | pest or weed control at 250 g/ha [7] | pest or weed control at 250 g/ha (Avena fatua (AVEFA) [8]) | crop damage to winter wheat at 250 g/ha [9] | Winter Wheat (Hereward) + cloquintocet mexyl damage (100=total damage to plant; 0=no damage to plant) [10] |
| --- | --- | --- | --- | --- | --- | --- | --- | --- | --- | --- |
| Cc1cc(C)c(C2C(=O)CC(CC3CCN(C(=O)c4ccccc4)C3)C2=O)c(C)c1 (centres unmarked) [Compound T41] | 90% | 70% | 100% | 90% | 100% | 100% | 100% | 100% | 90% | 80 |
| Cc1cc(C)c(C2=C(OC(=O)c3ccccc3)CC(CC3CCOC3)C2=O)c(C)c1 (centres unmarked) [Compound P17] | 100% | 100% | 90% | 90% | 100% | 100% | 100% | 90% | 70% | 0 |
| CON1CCC(CC2CC(OC(=O)OC(C)C)=C(c3c(C)cc(C)cc3C)C2=O)CC1 (centres unmarked) [Compound P56] | 100% | 100% | 100% | 90% | 100% | 90% | 90% | 100% | 90% | 60 |
| COC(=O)N1CCC(CC2CC(=O)C(c3c(C)cc(C)cc3C)C2=O)CC1 (centres unmarked) [Compound T98] | 90% | 70% | 90% | 80% | 100% | 100% | 90% | 100% | 90% | 60 |
| Cc1cc(C)c(C2C(=O)C/C(=C\C3CCCOC3)C2=O)c(C)c1 (centres unmarked) [Compound T14] | 100% | 100% | 100% | 100% | 100% | 100% | 100% | 100% | 80% | 60 |
| Cc1cc(-c2ccc(Cl)cc2)cc(C)c1C1C(=O)C/C(=C\C2CCOCC2)C1=O (centres unmarked) [Compound T62] | 100% | 80% | 100% | 70% | 90% | 90% | 100% | 100% | 80% | 70 |
| Cc1cc(C)c(C2=C(OC(=O)c3ccccc3)CC(CC3CCOCC3)C2=O)c(C)c1 (centres unmarked) [Compound P44] | 100% | 100% | 100% | 90% | 100% | 100% | 100% | 100% | 70% | 40 |
| Cc1cc(C)c(C2C(=O)CC(CC3CCN(C(=O)C4CC4)CC3)C2=O)c(C)c1 (centres unmarked) [Compound T88] | 100% | 90% | 80% | 90% | 90% | 90% | 90% | 100% | 70% | 50 |
| CCCOC(=O)OC1=C(c2c(C)cc(C)cc2C)C(=O)C(CC2CCOC2)C1 (centres unmarked) [Compound P20] | 100% | 100% | 80% | 90% | 100% | 100% | 100% | 90% | 40% | 0 |
| Cc1cc(C)c(C2=C(OC(=O)OC(C)C)CC(CC3CCOCC3)C2=O)c(C)c1 (centres unmarked) [Compound P43] | 100% | 100% | 100% | 100% | 100% | 100% | 100% | 90% | 50% | 40 |
| Cc1cc(C)c(C2=C(OC(=O)C(C)C)CC(CC3CCOC3)C2=O)c(C)c1 (centres unmarked) [Compound P13] | 100% | 100% | 100% | 90% | 100% | 90% | 100% | 90% | 70% | 10 |
| Cc1cc(C)c(C2C(=O)CC(CC3CCOC(C)(C)C3)C2=O)c(C)c1 (centres unmarked) [Compound T39] | 100% | 100% | 100% | 100% | 100% | 90% | 100% | 100% | 80% | 70 |
| Cc1cc(-c2ccccc2)cc(C)c1C1C(=O)C/C(=C\C2CCOCC2)C1=O (centres unmarked) [Compound T66] | 80% | 90% | 100% | 80% | 60% | 90% | 100% | 90% | 50% | 20 |
| Cc1cc(C)c(C2C(=O)C/C(=C\C3CCS(=O)(=O)CC3)C2=O)c(C)c1 (centres unmarked) [Compound T10] | 90% | 70% | 70% | 40% | 70% | 70% | 80% | 80% | 60% | 20 |
